Laboratory results taken from patent US20160303040A1, “INJECTABLE PHARMACEUTICAL COMPOSITIONS COMPRISING PROSTACYCLIN” (RIGSHOSPITALET, priority 2013, published 2016).

Key:
[1] = 10 days short term stability study on iloprost standards diluted with isotonic sodium chloride; type: physicochemical; details: stored at 5° C., after dilution with isotonic sodium chloride solution
Method: A: A concentration iloprost equal to 20 μg/ml (was used for the optimization of the HPLC procedure, UV 210 nm)
B: 0.9% sodium chloride in milliQ water (0.9 g NaCl in 100 ml water)
C: 100 μl of A and 900 μl of B: iloprost concentration equal to 2 μg/ml
A 10 days short term stability study was conducted on the standards The test solutions were prepared 11 May 2012 and analysed 11 May 2012, n=2, 15 May 2012, and 21 May 2012 and finally […]. Between the days of analysis the samples were stored at 5° C.

[2] = cited from earlier work

**Q.** For `CC#CCC(C)[C@H](O)/C=C/[C@@H]1[C@H]2C/C(=C/CCCC(=O)O)C[C@H]2C[C@H]1O` (stereo partly drawn) [Iloprost, 5-{(E)-(1S,5S,6R,7R)-7-hydroxy-6[(E)-(3S,4RS)-3-hydroxy-4-methyl-1-octen-6-inyl]-bi-cyclo[3.3.0]octan-3-ylidene}pentanoic acid], which short term stability [1] is on record?
**A.** No indication on major instability

**Q.** And the solubility in water [2]?
**A.** very slightly soluble
